# According to patent US20100035755A1, “METHOD OF CONTROLLING WEEDS IN A TURF GRASS BY USING SULFONYLUREA COMPOUNDS” (Moghu Research Center Ltd., priority 2008, published 2010):
# Entries after “also recorded” stand apart in the source; their conditions may differ.
# Columns and labels:
# Cyperus amuricus = test: Weed spectrum, greenhouse pot test; type: in vivo; conditions: two weeks after application
# Procedure, shortened: (§1)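 Scores reflect visual weed control two weeks after spraying, where 0 means no effect and 100 complete control. Plants grew in a greenhouse at 25˜30° C by day and 15˜25° C by night, with treatment either at sowing or at three-leaf stage.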
# Digitaria sanguinalis = test: Weed spectrum, greenhouse pot test; type: in vivo; conditions: two weeks after application
# Procedure, shortened: as §1
# Kummerowia striata = test: Weed spectrum, greenhouse pot test; type: in vivo; conditions: two weeks after application
# Procedure, shortened: as §1
# Poa annua = test: Weed spectrum, greenhouse pot test; type: in vivo; conditions: two weeks after application
# Procedure, shortened: as §1
# Portulaca oleracea = test: Weed spectrum, greenhouse pot test; type: in vivo; conditions: two weeks after application
# Procedure, shortened: as §1
# Viola arvensis = test: Actual field condition test of Example 2 (turf grass field); type: in vivo; conditions: 50 g ai/ha
# Method: The test chemical of the Example 2 was applied to a turf grass field, in which Viola arvensis as a representative hard-to-control perennial weed is thriving predominantly, to evaluate a weed control effect of the compound. The experiment was carried out from May to June, 2007 in the turf grass field within Korea Research Institute of Bioscience and Biotechnology (52, Ueun-dong, Yusong-gu, Daejon, South Korea). Fourteen days after the chemical application, the turf grass was cut once.
# cool season turfgrass = test: Turf grass selectivity, summary for cool season turfgrass; type: in vivo; conditions: application amount as low as 3 g ai/ha
# Description: Turf mats of Zoysia grass, bentgrass, Kentucky bluegrass, or perennial rye grass known as cool season turfgrass or western grass were purchased and cut into a piece having 10 cm×20 cm size. Then, each piece was transplanted in a rectangular plastic pot (surface area of 300 cm^2) in which sandy loam and mixed top soil (Boo-Nong Top Soil No. 3, for horticultural use) are filled in 1:1 ratio. After the transplantation, the grasses were cut once a week to maintain the blade height at 0.5-1.0 cm and cultivated for one month in a green house of which temperature was kept at 25˜30° C. for daytime and 15˜25° C. for nighttime, respectively. Then, the ‘test chemical’ of the above Examples 1 and 2 or ‘control chemical’ was applied thereto in an amount of 400, 200, 100, 50, 25, 12, 6, 3 g ai/ha. As a “control chemical”, pyrazolsulfuron ethyl wettable agent (manufactured by Dongbu Fine Chemicals; herein after, referred to as ‘control chemical No. 1’) and flazasulfuron (manufactured by Dongbu HiTek; herein after, referred to as ‘control chemical No. 2’), both sulfonylurea herbicides for a turf grass, were used. Application was carried out by using a track sprayer (R&D Sprayer, USA) equipped with Teejet 8002 nozzle (Spraying Systems Co., USA), and the application amount was adjusted to 2,000 L/ha, which is a typical application amount for a golf course in Korea. […]
# cool season turf grass = conditions: background statement; creeping bentgrass, Kentucky bluegrass; cited from earlier work
smiles,measurement,setting,value
"COc1cc(OC)nc(NC(=O)NS(=O)(=O)c2ncccc2C(F)(F)F)n1 [Control chemical No. 2, Flazasulfuron, reference compound]",efficacy (0-100 scale),"Cyperus amuricus; Post-emergence, 12 g ai/ha",60
same,efficacy (0-100 scale),"Cyperus amuricus; Post-emergence, 25 g ai/ha",70
same,efficacy (0-100 scale),"Cyperus amuricus; Post-emergence, 50 g ai/ha",80
same,efficacy (0-100 scale),"Cyperus amuricus; Post-emergence, 100 g ai/ha",80
same,efficacy (0-100 scale),"Cyperus amuricus; Pre-emergence, 12 g ai/ha",40
same,efficacy (0-100 scale),"Cyperus amuricus; Pre-emergence, 25 g ai/ha",70
same,efficacy (0-100 scale),"Cyperus amuricus; Pre-emergence, 50 g ai/ha",80
same,efficacy (0-100 scale),"Cyperus amuricus; Pre-emergence, 100 g ai/ha",100
same,efficacy (0-100 scale),"Digitaria sanguinalis; Post-emergence, 12 g ai/ha",50
same,efficacy (0-100 scale),"Digitaria sanguinalis; Post-emergence, 25 g ai/ha",70
same,efficacy (0-100 scale),"Digitaria sanguinalis; Post-emergence, 50 g ai/ha",80
same,efficacy (0-100 scale),"Digitaria sanguinalis; Post-emergence, 100 g ai/ha",80
same,efficacy (0-100 scale),"Digitaria sanguinalis; Pre-emergence, 12 g ai/ha",60
same,efficacy (0-100 scale),"Digitaria sanguinalis; Pre-emergence, 25 g ai/ha",70
same,efficacy (0-100 scale),"Digitaria sanguinalis; Pre-emergence, 50 g ai/ha",90
same,efficacy (0-100 scale),"Digitaria sanguinalis; Pre-emergence, 100 g ai/ha",100
same,efficacy (0-100 scale),"Kummerowia striata; Post-emergence, 12 g ai/ha",80
same,efficacy (0-100 scale),"Kummerowia striata; Post-emergence, 25 g ai/ha",90
same,efficacy (0-100 scale),"Kummerowia striata; Post-emergence, 50 g ai/ha",100
same,efficacy (0-100 scale),"Kummerowia striata; Post-emergence, 100 g ai/ha",100
same,efficacy (0-100 scale),"Kummerowia striata; Pre-emergence, 12 g ai/ha",80
same,efficacy (0-100 scale),"Kummerowia striata; Pre-emergence, 25 g ai/ha",90
same,efficacy (0-100 scale),"Kummerowia striata; Pre-emergence, 50 g ai/ha",100
same,efficacy (0-100 scale),"Kummerowia striata; Pre-emergence, 100 g ai/ha",100
same,efficacy (0-100 scale),"Poa annua; Post-emergence, 12 g ai/ha",40
same,efficacy (0-100 scale),"Poa annua; Post-emergence, 25 g ai/ha",70
same,efficacy (0-100 scale),"Poa annua; Post-emergence, 50 g ai/ha",80
same,efficacy (0-100 scale),"Poa annua; Post-emergence, 100 g ai/ha",90
same,efficacy (0-100 scale),"Poa annua; Pre-emergence, 12 g ai/ha",40
same,efficacy (0-100 scale),"Poa annua; Pre-emergence, 25 g ai/ha",70
same,efficacy (0-100 scale),"Poa annua; Pre-emergence, 50 g ai/ha",100
same,efficacy (0-100 scale),"Poa annua; Pre-emergence, 100 g ai/ha",100
same,efficacy (0-100 scale),"Portulaca oleracea; Post-emergence, 12 g ai/ha",80
same,efficacy (0-100 scale),"Portulaca oleracea; Post-emergence, 25 g ai/ha",90
same,efficacy (0-100 scale),"Portulaca oleracea; Post-emergence, 50 g ai/ha",90
same,efficacy (0-100 scale),"Portulaca oleracea; Post-emergence, 100 g ai/ha",100
same,efficacy (0-100 scale),"Portulaca oleracea; Pre-emergence, 12 g ai/ha",40
same,efficacy (0-100 scale),"Portulaca oleracea; Pre-emergence, 25 g ai/ha",60
same,efficacy (0-100 scale),"Portulaca oleracea; Pre-emergence, 50 g ai/ha",90
same,efficacy (0-100 scale),"Portulaca oleracea; Pre-emergence, 100 g ai/ha",100
same,Effect on Viola arvensis,Viola arvensis; After 7 days,20
same,Effect on Viola arvensis,Viola arvensis; After 14 days,50
same,phytotoxicity to cool season turfgrass,cool season turfgrass,complete withering; also recorded: completely withered
same,safety to cool season turf grass,cool season turf grass,no safety
